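The compound was tested at five concentrations on cells cultured in 96-well plates, with a 48-hour exposure period. Abbreviation: GI50, concentration required for 50% inhibition of growth.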 Activity calls are given as the source filed them. No stated cut-off is given here; in the data, active = GI50 up to about 1.1 µM and inactive = higher.
Legend:
Assay in all cases: NCI tumour cell line growth inhibition, 48 h
Hs-578T = test system: Hs-578T
HCC 2998 = test system: HCC 2998
T47D = test system: T47D
HOP-92 = test system: HOP-92
786-0 = test system: 786-0
COLO 205 = test system: COLO 205
LOX IMVI = test system: LOX IMVI
HT-29 = test system: HT-29
OVCAR-5 = test system: OVCAR-5
MDA-N = test system: MDA-N
M14 = test system: M14
SN12C = test system: SN12C
MDA-MB-231 = test system: MDA-MB-231
RPMI-8226 = test system: RPMI-8226
SNB-19 = test system: SNB-19
UACC-257 = test system: UACC-257
CAKI-1 = test system: CAKI-1
SK-MEL-28 = test system: SK-MEL-28
SF-539 = test system: SF-539
BT-549 = test system: BT-549
EKVX = test system: EKVX
PC-3 = test system: PC-3
CCRF-CEM = test system: CCRF-CEM
SW-620 = test system: SW-620
UACC-62 = test system: UACC-62
TK-10 = test system: TK-10
Malme-3M = test system: Malme-3M
SK-MEL-2 = test system: SK-MEL-2
MOLT-4 = test system: MOLT-4
RXF 393 = test system: RXF 393
MCF7 = test system: MCF7
KM12 = test system: KM12
NCI/ADR-RES = test system: NCI/ADR-RES
MDA-MB-435 = test system: MDA-MB-435
DU-145 = test system: DU-145
ACHN = test system: ACHN
SNB-75 = test system: SNB-75
A549 = test system: A549
NCI-H522 = test system: NCI-H522
SK-MEL-5 = test system: SK-MEL-5
HL-60 = test system: HL-60
HCT-116 = test system: HCT-116
OVCAR-8 = test system: OVCAR-8
NCI-H23 = test system: NCI-H23
SK-OV-3 = test system: SK-OV-3
HOP-62 = test system: HOP-62
UO-31 = test system: UO-31
SF-295 = test system: SF-295
SF-268 = test system: SF-268
OVCAR-3 = test system: OVCAR-3
OVCAR-4 = test system: OVCAR-4
HCT-15 = test system: HCT-15
U-251 = test system: U-251
IGROV-1 = test system: IGROV-1
NCI-H226 = test system: NCI-H226
K562 = test system: K562
NCI-H460 = test system: NCI-H460
A498 = test system: A498
SR = test system: SR

With `Cc1cc2ncn(C3CCCCO3)c2cc1C` (stereo unspecified) the GI50 (Hs-578T) was > 100 µM (inactive), the GI50 (HCC 2998) was > 100 µM (inactive) and the GI50 (T47D) was > 100 µM (inactive). For the same compound, the GI50 (HOP-92) was > 100 µM (inactive), the GI50 (786-0) was > 100 µM (inactive) and the GI50 (COLO 205) was > 100 µM (inactive). For the same compound, the GI50 (LOX IMVI) was 62.5 µM (inactive), the GI50 (HT-29) was > 100 µM (inactive) and the GI50 (OVCAR-5) was > 100 µM (inactive). For the same compound, the GI50 (MDA-N) was > 100 µM (inactive), the GI50 (M14) was > 100 µM (inactive) and the GI50 (SN12C) was > 100 µM (inactive). For the same compound, the GI50 (MDA-MB-231) was > 100 µM (inactive), the GI50 (RPMI-8226) was > 100 µM (inactive) and the GI50 (SNB-19) was > 100 µM (inactive). For the same compound, the GI50 (UACC-257) was > 100 µM (inactive), the GI50 (CAKI-1) was > 100 µM (inactive) and the GI50 (SK-MEL-28) was > 100 µM (inactive). For the same compound, the GI50 (SF-539) was > 100 µM (inactive), the GI50 (BT-549) was > 100 µM (inactive) and the GI50 (EKVX) was > 100 µM (inactive). The GI50 (PC-3) was > 100 µM (inactive), the GI50 (CCRF-CEM) was > 100 µM (inactive) and the GI50 (SW-620) was > 100 µM (inactive). For the same compound, the GI50 (UACC-62) was > 100 µM (inactive), the GI50 (TK-10) was > 100 µM (inactive) and the GI50 (Malme-3M) was > 100 µM (inactive). For the same compound, the GI50 (SK-MEL-2) was > 100 µM (inactive), the GI50 (MOLT-4) was > 100 µM (inactive) and the GI50 (RXF 393) was > 100 µM (inactive). The GI50 (MCF7) was > 100 µM (inactive), the GI50 (KM12) was 35.5 µM (inactive) and the GI50 (NCI/ADR-RES) was > 100 µM (inactive). For the same compound, the GI50 (MDA-MB-435) was > 100 µM (inactive), the GI50 (DU-145) was > 100 µM (inactive) and the GI50 (ACHN) was > 100 µM (inactive). For the same compound, the GI50 (SNB-75) was > 100 µM (inactive), the GI50 (A549) was > 100 µM (inactive) and the GI50 (NCI-H522) was > 100 µM (inactive). The GI50 (SK-MEL-5) was > 100 µM (inactive), the GI50 (HL-60) was > 100 µM (inactive) and the GI50 (HCT-116) was > 100 µM (inactive). For the same compound, the GI50 (OVCAR-8) was > 100 µM (inactive), the GI50 (NCI-H23) was 50.2 µM (inactive) and the GI50 (SK-OV-3) was > 100 µM (inactive). For the same compound, the GI50 (HOP-62) was > 100 µM (inactive), the GI50 (UO-31) was 20.2 µM (inactive) and the GI50 (SF-295) was > 100 µM (inactive). The GI50 (SF-268) was > 100 µM (inactive), the GI50 (OVCAR-3) was > 100 µM (inactive) and the GI50 (OVCAR-4) was > 100 µM (inactive). The GI50 (HCT-15) was greater than 100 µM, the GI50 (U-251) was > 100 µM (inactive) and the GI50 (IGROV-1) was > 100 µM (inactive). For the same compound, the GI50 (NCI-H226) was > 100 µM (inactive) and the GI50 (K562) was > 100 µM (inactive).

`CC(=O)N(C(C)=O)n1nc2c(n1)C(=O)c1ccccc1C2=O` was tested, and the GI50 (Hs-578T) was > 100 µM (inactive), the GI50 (T47D) was > 100 µM (inactive) and the GI50 (NCI-H460) was > 100 µM (inactive). For the same compound, the GI50 (HOP-92) was > 100 µM (inactive), the GI50 (786-0) was > 100 µM (inactive) and the GI50 (COLO 205) was > 100 µM (inactive). For the same compound, the GI50 (A498) was > 100 µM (inactive), the GI50 (LOX IMVI) was > 100 µM (inactive) and the GI50 (HT-29) was > 100 µM (inactive). The GI50 (OVCAR-5) was > 100 µM (inactive), the GI50 (MDA-N) was > 100 µM (inactive) and the GI50 (M14) was > 100 µM (inactive). For the same compound, the GI50 (SN12C) was > 100 µM (inactive), the GI50 (MDA-MB-231) was > 100 µM (inactive) and the GI50 (RPMI-8226) was > 100 µM (inactive). The GI50 (SNB-19) was > 100 µM (inactive), the GI50 (UACC-257) was 81.5 µM (inactive) and the GI50 (CAKI-1) was > 100 µM (inactive). For the same compound, the GI50 (SK-MEL-28) was > 100 µM (inactive), the GI50 (SF-539) was > 100 µM (inactive) and the GI50 (BT-549) was > 100 µM (inactive). For the same compound, the GI50 (EKVX) was > 100 µM (inactive), the GI50 (PC-3) was > 100 µM (inactive) and the GI50 (CCRF-CEM) was > 100 µM (inactive). The GI50 (SW-620) was > 100 µM (inactive), the GI50 (UACC-62) was > 100 µM (inactive) and the GI50 (TK-10) was > 100 µM (inactive). For the same compound, the GI50 (Malme-3M) was 68.1 µM (inactive), the GI50 (SK-MEL-2) was > 100 µM (inactive) and the GI50 (MOLT-4) was > 100 µM (inactive). The GI50 (RXF 393) was > 100 µM (inactive), the GI50 (MCF7) was > 100 µM (inactive) and the GI50 (KM12) was > 100 µM (inactive). For the same compound, the GI50 (NCI/ADR-RES) was > 100 µM (inactive), the GI50 (MDA-MB-435) was > 100 µM (inactive) and the GI50 (DU-145) was > 100 µM (inactive). For the same compound, the GI50 (ACHN) was > 100 µM (inactive), the GI50 (A549) was > 100 µM (inactive) and the GI50 (NCI-H522) was > 100 µM (inactive). The GI50 (SK-MEL-5) was > 100 µM (inactive), the GI50 (HL-60) was > 100 µM (inactive) and the GI50 (HCT-116) was > 100 µM (inactive). For the same compound, the GI50 (OVCAR-8) was > 100 µM (inactive), the GI50 (NCI-H23) was > 100 µM (inactive) and the GI50 (SK-OV-3) was > 100 µM (inactive). The GI50 (HOP-62) was > 100 µM (inactive), the GI50 (UO-31) was > 100 µM (inactive) and the GI50 (SF-295) was > 100 µM (inactive). The GI50 (SF-268) was > 100 µM (inactive), the GI50 (OVCAR-3) was 28.1 µM (inactive) and the GI50 (OVCAR-4) was > 100 µM (inactive). For the same compound, the GI50 (HCT-15) was greater than 100 µM, the GI50 (U-251) was > 100 µM (inactive) and the GI50 (IGROV-1) was > 100 µM (inactive).

With `CN(NC(=O)c1cccs1)C1=NCCCN1` the GI50 (Hs-578T) was > 100 µM (inactive), the GI50 (HCC 2998) was > 100 µM (inactive) and the GI50 (T47D) was > 100 µM (inactive). The GI50 (NCI-H460) was > 100 µM (inactive), the GI50 (HOP-92) was > 100 µM (inactive) and the GI50 (786-0) was > 100 µM (inactive). The GI50 (COLO 205) was > 100 µM (inactive), the GI50 (A498) was > 100 µM (inactive) and the GI50 (LOX IMVI) was > 100 µM (inactive). The GI50 (HT-29) was > 100 µM (inactive), the GI50 (OVCAR-5) was > 100 µM (inactive) and the GI50 (MDA-N) was > 100 µM (inactive). The GI50 (M14) was > 100 µM (inactive), the GI50 (MDA-MB-231) was > 100 µM (inactive) and the GI50 (RPMI-8226) was > 100 µM (inactive). The GI50 (SNB-19) was > 100 µM (inactive), the GI50 (UACC-257) was > 100 µM (inactive) and the GI50 (SK-MEL-28) was > 100 µM (inactive). For the same compound, the GI50 (SF-539) was > 100 µM (inactive), the GI50 (BT-549) was > 100 µM (inactive) and the GI50 (EKVX) was 85.9 µM (inactive). The GI50 (PC-3) was > 100 µM (inactive), the GI50 (CCRF-CEM) was > 100 µM (inactive) and the GI50 (SW-620) was > 100 µM (inactive). The GI50 (UACC-62) was > 100 µM (inactive), the GI50 (TK-10) was > 100 µM (inactive) and the GI50 (Malme-3M) was > 100 µM (inactive). For the same compound, the GI50 (SK-MEL-2) was > 100 µM (inactive), the GI50 (MOLT-4) was > 100 µM (inactive) and the GI50 (RXF 393) was > 100 µM (inactive). For the same compound, the GI50 (SR) was > 100 µM (inactive), the GI50 (MCF7) was > 100 µM (inactive) and the GI50 (KM12) was > 100 µM (inactive). The GI50 (NCI/ADR-RES) was > 100 µM (inactive), the GI50 (MDA-MB-435) was > 100 µM (inactive) and the GI50 (ACHN) was > 100 µM (inactive). For the same compound, the GI50 (SNB-75) was > 100 µM (inactive), the GI50 (A549) was > 100 µM (inactive) and the GI50 (NCI-H522) was > 100 µM (inactive). For the same compound, the GI50 (SK-MEL-5) was > 100 µM (inactive), the GI50 (HL-60) was > 100 µM (inactive) and the GI50 (HCT-116) was > 100 µM (inactive). For the same compound, the GI50 (OVCAR-8) was > 100 µM (inactive), the GI50 (NCI-H23) was > 100 µM (inactive) and the GI50 (SK-OV-3) was > 100 µM (inactive). The GI50 (HOP-62) was > 100 µM (inactive), the GI50 (UO-31) was > 100 µM (inactive) and the GI50 (SF-295) was > 100 µM (inactive). For the same compound, the GI50 (SF-268) was > 100 µM (inactive), the GI50 (OVCAR-3) was > 100 µM (inactive) and the GI50 (OVCAR-4) was > 100 µM (inactive). The GI50 (HCT-15) was greater than 100 µM, the GI50 (U-251) was > 100 µM (inactive) and the GI50 (IGROV-1) was > 100 µM (inactive). The GI50 (NCI-H226) was > 100 µM (inactive) and the GI50 (K562) was > 100 µM (inactive).

Source: ChEMBL document CHEMBL1201862, “PubChem BioAssay data set” (2004)
